{
  "source": "paper PMC11650735",
  "about": "“Challenging Reported Frizzled-Targeting Compounds in Selective Assays Reveals Lack of Functional Inhibition and Claimed Profiles” (ACS Pharmacology & Translational Science, 2024)",
  "key": {"[1]": {"system": "Wnt3a-stimulated Wnt pathway activation", "experiment": "TopFlash assay in reporter wild-type HEK293T line, Wnt3a-stimulated", "assay_type": "cell-based, human", "settings": "for IC50: Homo sapiens, HEK-293T, Wnt3a"}, "HEK293T cells [2]": {"system": "HEK293T cells", "experiment": "Renilla luciferase (pRL-CMV) toxicity/general transcription readout in wild-type reporter HEK293T", "settings": "for IC50: Homo sapiens, HEK-293T, read-out: IC50 (Renilla)"}, "[3]": {"system": "CHIR99021-induced Wnt pathway activation (FZD-independent)", "experiment": "TopFlash in ΔFZD1–10 HEK293T without FZD (pcDNA), CHIR99021-stimulated"}, "ΔFZD1–10 HEK293T cells": {"system": "ΔFZD1–10 HEK293T cells", "settings": "for toxicity / general transcriptional inhibition by Renilla signal, in words: Renilla luciferase"}, "[4]": {"system": "Wnt signaling in TopFlash-transfected 3T3 cells", "parameters": "method as in PMID 26504084", "settings": "read-out: potency; cited from earlier work"}, "[5]": {"system": "CHIR99021-stimulated Wnt pathway activation", "experiment": "TopFlash assay in reporter wild-type HEK293T line, CHIR99021-stimulated", "assay_type": "cell-based, human", "settings": "for inhibition of CHIR99021-stimulated response compared with Wnt3a-stimulated, in words: wild-type reporter HEK293T, TopFlash"}, "[6]": {"system": "individually reexpressed FZDs (1,2,4,5,7,8, and 10)", "experiment": "TopFlash in ΔFZD1–10 HEK293T, panel of individually reexpressed FZDs, Wnt3a-stimulated (collective statements)"}, "FZD7 [7]": {"biological_target": "T1, FZD7 (Homo sapiens, UniProt O75084)", "experiment": "NanoLuc-substituted TopFlash reporter in ΔFZD1–10 HEK293T cotransfected with FZD7, Wnt3a"}, "[8]": {"system": "Wnt3a/FZD7-mediated cytoplasmic β-catenin accumulation", "experiment": "Western blot of FZD7-dependent cytoplasmic β-catenin accumulation in ΔFZD1–10 HEK293T", "assay_type": "cell-based, human", "settings": "10 μM, FZD7-transfected ΔFZD1–10 HEK293T", "method": "In 24-well plates, a ΔFZD1–10 HEK293T cell line was reinfected with a baculovirus expressing FZD7 or a control baculovirus at a density of 100,000 cells/well. The new medium containing the 10 μM F7H-28 derivative and the indicated Wnt activators (500 ng/mL Wnt3a or 1 μM CHIR99021) was added and incubated until the next day. The medium was then removed, and 500 μL of 1× PBS was used twice for washing. After adding 30 μL of ice-cold 1× TBS supplemented with 4 mM EDTA and 1× protease inhibitor cocktail, the cells were lysed by scraping and passed through an insulin 30G needle 10 times. The samples were centrifuged at 18,000g and 4 °C for 10 min to remove debris. Western blot was performed on 15 μL of each supernatant and developed using antibodies against α-tubulin and β-catenin."}, "FZD7 [9]": {"biological_target": "T1, FZD7", "experiment": "TopFlash in ΔFZD1–10 HEK293T with reexpressed FZD7, Wnt3a-stimulated", "settings": "FZD7 reexpression, firefly TopFlash"}, "firefly luciferase": {"biological_target": "firefly luciferase (Photinus pyralis, UniProt P08659)", "sequence (P08659 whole entry)": "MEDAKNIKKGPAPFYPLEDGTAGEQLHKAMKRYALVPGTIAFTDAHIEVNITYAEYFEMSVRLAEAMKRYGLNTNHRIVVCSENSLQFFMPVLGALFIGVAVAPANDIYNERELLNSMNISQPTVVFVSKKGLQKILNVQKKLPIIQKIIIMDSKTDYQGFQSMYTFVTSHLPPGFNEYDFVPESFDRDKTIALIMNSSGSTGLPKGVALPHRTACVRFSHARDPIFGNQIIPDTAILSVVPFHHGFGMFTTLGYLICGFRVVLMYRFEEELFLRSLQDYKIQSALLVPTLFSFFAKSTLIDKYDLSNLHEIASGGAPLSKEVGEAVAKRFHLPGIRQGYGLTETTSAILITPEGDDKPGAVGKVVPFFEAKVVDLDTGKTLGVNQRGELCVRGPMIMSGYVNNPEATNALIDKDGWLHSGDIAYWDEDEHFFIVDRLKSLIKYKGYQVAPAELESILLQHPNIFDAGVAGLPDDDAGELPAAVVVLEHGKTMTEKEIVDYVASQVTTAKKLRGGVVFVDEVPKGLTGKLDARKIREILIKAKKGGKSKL", "experiment": "Compound added to prestimulated TopFlash cells immediately prior to lysis and measurement", "settings": "compound added directly before cell lysis"}, "FZD7 [10]": {"biological_target": "T1, FZD7", "experiment": "cell-based"}, "FZD7 [11]": {"system": "FZD7", "parameters": "method as in PMID 37669317", "settings": "cited from earlier work"}, "FZD4": {"biological_target": "T2, FZD4 (Mus musculus, UniProt Q61088)", "T2 sequence (Q61088 37-537)": "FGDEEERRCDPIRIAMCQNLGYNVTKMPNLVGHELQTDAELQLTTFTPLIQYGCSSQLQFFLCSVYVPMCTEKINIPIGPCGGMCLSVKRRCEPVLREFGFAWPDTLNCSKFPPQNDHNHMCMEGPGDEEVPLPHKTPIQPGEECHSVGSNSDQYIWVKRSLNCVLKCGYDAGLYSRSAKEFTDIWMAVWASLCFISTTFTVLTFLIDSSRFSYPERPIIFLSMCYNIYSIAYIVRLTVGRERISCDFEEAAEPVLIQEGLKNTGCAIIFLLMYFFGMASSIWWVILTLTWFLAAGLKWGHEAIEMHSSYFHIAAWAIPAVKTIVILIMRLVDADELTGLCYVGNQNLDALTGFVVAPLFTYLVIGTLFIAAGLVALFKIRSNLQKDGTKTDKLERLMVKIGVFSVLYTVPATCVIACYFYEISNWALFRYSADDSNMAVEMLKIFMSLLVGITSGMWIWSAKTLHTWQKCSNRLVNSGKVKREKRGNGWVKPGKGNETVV", "experiment": "TopFlash in ΔFZD1–10 HEK293T with reexpressed FZD4, Wnt3a-stimulated", "settings": "ΔFZD1–10 HEK293T + FZD4, Wnt3a, up to 50 μM"}, "FZD7 [12]": {"system": "FZD7", "parameters": "method as in PMID 29207657", "settings": "claimed FZD7 inhibition; cited from earlier work"}, "mouse FZD8": {"system": "mouse FZD8", "parameters": "method as in PMID 32049522", "settings": "HEK293T FZD1,2,7 knockout + mouse FZD8; cited from earlier work"}, "HEK293T cells [13]": {"system": "HEK293T cells"}, "[14]": {"settings": "read-out: IC50 / potency, ΔFZD1–10 HEK293T without FZD, CHIR99021"}},
  "note": "Entries after “also recorded” stand apart in the source; their conditions may differ. Like-named read-outs stand apart in the source and are kept apart here.",
  "data": [
    {"smiles": "COc1ccc(C(=O)Nc2ccccc2C(=O)NC(C(=O)NNC(=O)COc2ccccc2)C(C)C)cc1", "note": "(centres unmarked) [3235-0367]", "values": [
      {"measurement": "IC50", "setting": "[1]; wild-type reporter HEK293T, TopFlash", "result": "~8", "unit": "µM"},
      {"measurement": "IC50", "setting": "HEK293T cells [2]", "result": "> 50", "unit": "µM"},
      {"measurement": "IC50", "setting": "[3]; [14]", "result": "~20", "unit": "µM"},
      {"measurement": "IC50", "setting": "ΔFZD1–10 HEK293T cells; read-out: IC50 (Renilla), Renilla luciferase signal", "result": "> 50", "unit": "µM"},
      {"measurement": "IC50", "setting": "[4]", "result": 7.1, "unit": "µM"},
      {"measurement": "inhibition of CHIR99021-stimulated response compared with Wnt3a-stimulated, in words", "setting": "[5]", "result": "overlapping inhibition curve"},
      {"measurement": "selectivity among FZDs, in words", "setting": "[6]; individual FZDs including FZD8", "result": "no significant selectivity"}
    ]},
    {"smiles": "O=C(CSc1ccc(NC(=O)c2ccc(F)cc2)cc1)Nc1nc(-c2ccccc2)cs1", "note": "[F7H-28]", "values": [
      {"measurement": "effect on NanoLuc Wnt reporter, in words", "setting": "FZD7 [7]", "result": "does not report significant changes"},
      {"measurement": "IC50", "setting": "HEK293T cells [2]", "result": "> 2", "unit": "µM"},
      {"measurement": "effect on cytoplasmic β-catenin signal (Western blot), in words", "setting": "[8]", "result": "does not reduce this signal"},
      {"measurement": "potency compared with CHIR99021-stimulated cells, in words", "setting": "FZD7 [9]", "result": "same potency"},
      {"measurement": "direct effect on firefly luciferase, in words", "setting": "firefly luciferase", "result": "inhibits the firefly luciferase enzymatic activity"},
      {"measurement": "IC50", "setting": "FZD7 [10]", "result": "> 50", "unit": "µM"},
      {"measurement": "IC50", "setting": "FZD7 [11]", "result": 0.04, "unit": "µM"}
    ]},
    {"smiles": "CSCC[C@H](NC(=O)[C@@H](NC(=O)[C@H](Cc1c[nH]cn1)NC(=O)[C@H](CS)NC(=O)[C@H](Cc1c[nH]c2ccccc12)NC(=O)[C@H](Cc1ccccc1)NC(=O)[C@H](CCC(=O)O)NC(=O)[C@H](CC(C)C)NC(=O)[C@H](CC(=O)O)NC(=O)[C@H](CC(=O)O)NC(=O)[C@H](CO)NC(=O)[C@@H]1CCCN1C(=O)[C@@H](N)CC(C)C)C(C)C)C(=O)N[C@@H](Cc1ccc(O)cc1)C(=O)O", "note": "[Fz7–21, LPSDDLEFWCHVMY]", "values": [
      {"measurement": "toxicity / general transcriptional inhibition by Renilla signal, in words", "setting": "ΔFZD1–10 HEK293T cells", "result": "no unspecific toxicity"}
    ]},
    {"smiles": "O=C(Nc1cc(O)cc(-c2cccs2)c1)Nc1ccc2ccccc2c1", "note": "[FzM1]", "values": [
      {"measurement": "activity against Wnt signaling, in words", "setting": "[1]; wild-type HEK293T, up to 50 μM", "result": "no detectable activity; also recorded: no statistically discernible effect"},
      {"measurement": "effect on FZD4-dependent Wnt3a signaling, in words", "setting": "FZD4", "result": "no statistically discernible effect"},
      {"measurement": "activity against Wnt signaling, in words", "setting": "[6]; any of the FZDs in ΔFZD1–10 HEK293T, Wnt3a, up to 50 μM", "result": "no detectable activity; also recorded: no statistically discernible effect"}
    ]},
    {"smiles": "O=C(/C=C/c1ccc2c(c1)OCO2)Nc1ccc(-n2cnc3ccccc32)cc1", "note": "[SRI35959]", "values": [
      {"measurement": "IC50", "setting": "FZD7 [12]", "result": "~3", "unit": "µM"},
      {"measurement": "toxicity by effect on Renilla luciferase, in words", "setting": "HEK293T cells [2]; wild-type reporter HEK293T, Renilla luciferase", "result": "some toxicity"},
      {"measurement": "IC50", "setting": "[3]; [14]", "result": 10, "unit": "µM"},
      {"measurement": "toxicity / general transcriptional inhibition by Renilla signal, in words", "setting": "ΔFZD1–10 HEK293T cells", "result": "some toxicity"},
      {"measurement": "inhibition of CHIR99021-stimulated response compared with Wnt3a-stimulated, in words", "setting": "[5]", "result": "slightly (but significantly) better"}
    ]},
    {"smiles": "NC(=O)N1c2ccccc2C=Cc2ccccc21", "note": "[carbamazepine]", "values": [
      {"measurement": "inhibition of Wnt3a-induced signal, in words", "setting": "mouse FZD8", "result": "partially inhibited"},
      {"measurement": "IC50", "setting": "[3]; [14]", "result": "~50", "unit": "µM"},
      {"measurement": "toxicity by effect on Renilla luciferase, in words", "setting": "HEK293T cells [13]", "result": "some toxicity"},
      {"measurement": "toxicity / general transcriptional inhibition by Renilla signal, in words", "setting": "ΔFZD1–10 HEK293T cells", "result": "some toxicity"},
      {"measurement": "inhibition of CHIR99021-stimulated response compared with Wnt3a-stimulated, in words", "setting": "[5]", "result": "slightly (but significantly) better"}
    ]},
    {"smiles": "O=C(Nc1ccc([N+](=O)[O-])cc1Cl)c1cc(Cl)ccc1O", "note": "[niclosamide]", "values": [
      {"measurement": "IC50", "setting": "[1]; wild-type HEK293T reporter line", "result": 0.1, "unit": "µM"},
      {"measurement": "IC50", "setting": "[3]; CHIR99021 in cells deprived of any FZD protein", "result": 0.1, "unit": "µM"},
      {"measurement": "IC50", "setting": "[5]; Homo sapiens, HEK-293T, wild-type HEK293T reporter line", "result": 0.1, "unit": "µM"},
      {"measurement": "IC50", "setting": "[6]; all individually reexpressed FZDs, Wnt3a", "result": 0.1, "unit": "µM"}
    ]}
  ]
}
